The source of these data is ChEMBL document CHEMBL6134925, “Novel Pyrrolidinone Urea as FPR2 Agonists for Treating Atherosclerosis and Heart Failure” (ACS Med Chem Lett, 2025).

For this assay, the target named is T1, N-formyl peptide receptor 2 (Homo sapiens, UniProt P25090).
T1 sequence (P25090 whole entry): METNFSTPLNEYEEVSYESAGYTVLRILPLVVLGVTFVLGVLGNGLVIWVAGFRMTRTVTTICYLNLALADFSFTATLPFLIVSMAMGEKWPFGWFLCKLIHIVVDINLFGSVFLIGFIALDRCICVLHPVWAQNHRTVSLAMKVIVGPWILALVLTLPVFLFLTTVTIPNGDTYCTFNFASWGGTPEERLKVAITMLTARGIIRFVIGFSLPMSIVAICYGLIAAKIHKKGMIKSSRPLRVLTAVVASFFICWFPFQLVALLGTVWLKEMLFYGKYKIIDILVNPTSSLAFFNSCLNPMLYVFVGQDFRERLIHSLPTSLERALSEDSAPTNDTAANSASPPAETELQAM
Kind of assay: Agonist activity at human FPR2 receptor expressed in CHO cells assessed as forskolin/IBMX-induced intracellular cAMP level incubated for 30 mins by HTRF HiRange cAMP assay. Format: functional, cell-based. On the technique in general: Cyclic AMP is a second messenger, typically raised through Gs and lowered through Gi signalling.

The structures appear in SMILES notation.

Usually EC50 stands for the concentration at which the effect is half-maximal. For `CN(C)[C@@H]1CCN(c2ccc(N3CC[C@@H](NC(=O)Nc4ccc(Cl)cc4)C3=O)c(F)c2F)C1`, the EC50 came out at 0.19 nM. Under `CN[C@@H]1CCN(c2ccc(N3CCC(NC(=O)Nc4ccc(Cl)cc4)C3=O)c(F)c2F)C1` (stereo partly specified) stands 5.6 nM; under `O=C(Nc1ccc(C(F)(F)F)cc1F)NC1CCN(c2c(F)cc(N3CCCS3(=O)=O)cc2F)C1=O` (stereo unspecified), 7.2 nM. Under `CN(CCO)[C@@H]1CCN(c2ccc(N3CCC(NC(=O)Nc4ccc(Cl)cc4)C3=O)c(F)c2F)C1` (stereo partly specified) stands 0.27 nM; under `O=C(Nc1ccc(Cl)cc1F)NC1CCN(c2c(F)cc(N3CCCS3(=O)=O)cc2F)C1=O` (stereo unspecified), 4.4 nM; under `CN(C)[C@@H]1CCN(c2ccc(N3CC[C@@H](NC(=O)Nc4ccc(C(F)(F)F)cc4)C3=O)c(F)c2F)C1`, 0.21 nM.
